Tests used:
[1] = tested on: CDF1 mice immunized with sheep red blood cells (SRBC); assay: Delayed Type Hypersensitivity (D.T.H.) footpad test in normal mice immunized with SRBC; type: in vivo; details: for Increase in footpad thickness: 24 h after SRBC challenge; for T/C (%): footpad thickness increase vs control = 100%
Description: Effect of actinonin on the cellular immunity was investigated by measuring the Delayed Type Hypersensitivity (D.T.H.) (see […] and T. E. Miller: "J. Exp. Med.", 139, 1529-1539 (1974)) using mice immunized with sheep red blood cells (SRBC) as the antigen inoculated to the footpad of the mice. Thus, 10^8 SRBC suspended in 0.05 ml of physiological saline was inoculated by subcutaneous injection into a subdermal site of a hind footpad of CDF1 mice (6 mice per group, female, 8-weeks old) to make immunization. At the time of this immunization, an aqueous solution containing 5 mg/kg, 0.5 mg/kg, 0.05 mg/kg or 0.005 mg/kg of actinonin was administered intraperitoneally at a single dose to each test mice. 4 Days after the immunization, 10^8 SRBC in 0.05 ml of physiological saline were injected subcutaneously into the other hind footpad of the test mice for secondary challenge of the D.T.H. response. 24 Hours after the challenge, the thickness (in mm) of the hind footpad having received the challenge of SRBC was measured with vernier caliper. At the same time, the thickness of footpad of control mice which had received the injection of the SRBC and physiological saline without the administration of the test compound was also measured in each mouse. The increase in footpad thickness of the animals treated was calculated by the following equation: [formula] The effect of actinonin on the DTH response was evaluated by the following equation: [formula] […] In this way, the cell-mediated immunity potentiating effect of the test compound was evaluated. For comparison purpose, bestatin was also tested in the same manner as above.

[2] = tested on: mice bearing Ascites Sarcoma 180 tumor; assay: D.T.H. response to picryl chloride (ear thickness) in tumor-bearing mice; type: in vivo; details: for Increase in ear thickness: 24 h after picryl chloride challenge; for T/C (%): ear thickness increase vs control = 100%
Description: In mice bearing Ascites Sarcoma 180 tumor, the effect of actinonin on the D.T.H. response to picryl chloride was investigated. 10^6 Cells of Ascites Sarcoma 180 were transplanted intraperitoneally into CDF1 mice (12-week-old, female, 5 mice per group). The day of this transplantation was designated as Day 0. […] Then, 5.0 mg/kg, 0.5 mg/kg, 0.05 mg/kg or 0.005 mg/kg of actinonin dissolved in physiological saline was orally administered once daily from Day 1 to Day 8, except that on Days 5 and 6 the test compound was not administered. During this period of Day 1 to Day 8, the control group of mice (untreated) was given physiological saline only. On day 8, the right ear was challenged with 20 μl of a 1% olive oil solution of picryl chloride which was absorbed to an absorbent cotton mass cut to a size of 10 mm×5 mm×1 mm. Twenty-four hours after the challenge, the thickness of the ear was measured with a dial gauge. On the other hand, the control animals (untreated) were challenged on Day 8 with picryl chloride and physiological saline in accordance with the same procedure, but without having been treated with the test compound, and the thickness of the ear of the control animals was measured in the same way. The increase in the thickness of ear for the control group of mice was evaluated to be 100%. The increase (T) in the thickness of the ear for the group of mice treated with the test compound was compared with that (C) for the control group of mice to evaluate the rate (T/C, %) of the increase in the thickness of the ear, whereby the cellular immunity-potentiating activity of the compound under test was estimated.

[3] = tested on: mice; assay: Acute toxicity test in mice by intravenous injection; type: in vivo; details: i.v. dosage of 400 mg/kg
Description: Acute toxicity tests in mice by intravenous injection have shown that no deaths are caused by the actinonin compound of the formula (I) at an i.v. dosage of 400 mg/kg. […] The actinonin compound of the formula (I) is therefore useful as an immunopotentiator and anti-tumor immunomodulator or as adjuvants to various chemotherapeutic agents for use in the treatment of carcinomas.

[4] = tested on: gram-positive bacteria; details: against gram-positive bacteria; cited from earlier work
[5] = 0.5 mg/kg i.p. single dose at immunization
[6] = 0.5 mg/kg orally once daily Day 1 to Day 8 (not Days 5, 6)

Row | SMILES | Increase in footpad thickness [1, 5] | T/C (%) ([1]; 0.5 mg/kg i.p. single dose) | Increase in ear thickness [2, 6] | T/C (%) ([2]; 0.5 mg/kg orally once daily) | Increase in footpad thickness ([1]; 0.005 mg/kg i.p. single dose at immunization) | T/C (%) ([1]; 0.005 mg/kg i.p. single dose) | Increase in footpad thickness ([1]; 0.05 mg/kg i.p. single dose at immunization) | T/C (%) ([1]; 0.05 mg/kg i.p. single dose) | Increase in footpad thickness ([1]; 5 mg/kg i.p. single dose at immunization) | T/C (%) ([1]; 5 mg/kg i.p. single dose) | Deaths in acute toxicity test [3] | Increase in ear thickness ([2]; 0.005 mg/kg orally once daily Day 1 to Day 8 (not Days 5, 6)) | T/C (%) ([2]; 0.005 mg/kg orally once daily) | Increase in ear thickness ([2]; 0.05 mg/kg orally once daily Day 1 to Day 8 (not Days 5, 6)) | T/C (%) ([2]; 0.05 mg/kg orally once daily) | Increase in ear thickness ([2]; 5 mg/kg orally once daily Day 1 to Day 8 (not Days 5, 6)) | T/C (%) ([2]; 5 mg/kg orally once daily) | Antibacterial activity [4]
1 | CC(C)C[C@H](NC(=O)[C@@H](O)[C@H](N)Cc1ccccc1)C(=O)O [Bestatin, reference compound] | 12.8 ± 1.47 × 0.1 mm | 149% | 6.75 ± 1.51 × 10^-3 cm | 139.2% |  |  |  |  |  |  |  |  |  |  |  |  |  | 
2 | CCCCC[C@H](CC(=O)NO)C(=O)N[C@H](C(=O)N1CCC[C@H]1CO)C(C)C [Actinonin] | 11.4 ± 1.80 × 0.1 mm | 133% | 7.08 ± 1.66 × 10^-3 cm | 146.0% | 9.2 ± 1.15 × 0.1 mm | 107% | 10.4 ± 1.40 × 0.1 mm | 121% | 11.9 ± 1.44 × 0.1 mm | 138% | no deaths | 4.70 ± 0.67 × 10^-3 cm | 96.9% | 6.80 ± 0.84 × 10^-3 cm | 140.2% | 4.60 ± 1.19 × 10^-3 cm | 94.8% | exhibits antibacterial activity

— patent US4663342A, “Pharmaceutical composition and method for immunopotentiation” (Zaidan Hojin Biseibutsu Kagaku Kenkyu Kai, priority 1984, dated 1987)
